Assay [1] concerns retinal ganglion cells (RGCs) from rd1 retina. Description: multielectrode array (MEA) electrophysiology of isolated rd1 retinas, light response index (LRI). In kind it is cell-based, mouse. The protocol: Isolated rd1 retinas were treated with formulations of 100 μM Compound 1 and increasing concentrations of SBE-CD, from 300 μM to 34000 μM. Light responsivity was measured using multielectrode array (MEA) electrophysiology. […] To quantify the degree of light-responsivity for each recorded cell, the normalized relative difference in observed spike frequencies with and without light stimulus was defined as the light response index (LRI): […]

In assay [2] the test system is RGCs of rd1-GCaMP6f retina. Description: 2-photon live calcium imaging of isolated rd1-GCaMP6f retina, fraction of light-responsive cells. The assay is classed as cell-based, mouse. The settings on record: 100 μM Compound 1; lower stoichiometry of SBE-CD (300 μM vs 1200 μM), synaptic blockers. The protocol: To better understand how Compound 1 was photosensitizing RGCs, an rd1 mouse line was generated expressing the genetically encoded calcium indicator GCalVIP6f under control of Synapsin-1 to label all neurons for 2-photon live imaging. Isolated retina from these mice were then treated with 100 uM Compound 1 and either 300 uM or 1200 uM SBE-CD and imaged in the presence of synaptic blockers. The latter concentration was chosen to increase the amount of available cyclodextrin around to potentiate the photosensitization while not completely quenching it. Due to the spectral overlap of Compound 1 absorbance with GCaMP6fref, an interline stimulus module was developed for the 2-photon microscope. […]
To determine which neurons were responding to light, collected movies were cross correlated to the stimulus periods using an autocorrelation estimation. […] These resulting correlated micrographs were then used to quantify the number of light-responsive cells. […]
The total number of cells were counted from a max Z-projection the same movies and used to determine the relative fraction of light-responsive cells per Compound 1 formulation. […] The activity was also rastered using the recorded ΔF/F of all neurons (FIG. 2e).

Assay [3] has as its system RGCs of rd1 retina. Description: single in vivo injection, time course of photosensitization of RGCs (spike rasters, LRI). Also on record: species or system mouse. The settings on record: 100 μM Compound 1 and 1200 μM SBE-CD, observed up to 28 days post-injection. From the text: FIG. 3e is a scatter plot correlating the strength of light responses in RGCs and the abundance of Compound 1 in retinal tissue.

As to `CCN(Cc1ccccc1)c1ccc(/N=N/c2ccc(NC(=O)C[N+](CC)(CC)CC)cc2)cc1` [Compound 1], the “dependence of LRI on the amount of SBE-CD used” value in assay [1] (100 μM Compound 1, SBE-CD from 300 μM to 34000 μM) is recorded as “dose-response”. Besides, the “light response of RGCs (MEA)” value in assay [1] (100 μM Compound 1 with 300 μM SBE-CD (minimal amount)) is on record as “strongest light-responses”; in assay [1] (100 μM Compound 1 with 34000 μM SBE-CD (excess)) it was “nearly eliminated any light response”. Besides, the “photosensitization of the cells (LRI histograms)” value in assay [1] (excess of SBE-CD, compared to untreated rd1 tissue) was “very weakly”. Further, the “number of light-responding RGCs (LRI histograms)” value in assay [1] (minimal amount of SBE-CD) was “greatly increased”. In addition, the “number of RGCs that were light responsive (fraction of light-responding cells)” value in assay [2] was “greater number of RGCs that were light responsive”. Moreover, the “duration of photosensitization of RGCs” value in assay [3] is “prolongs photosensitization”.

The values are drawn from patent publication US20240009151A1, “FORMULATIONS OF AZOBENZENE PHOTOREACTIVE COMPOUNDS” (BAYON THERAPEUTICS, INC., priority 2020, published 2024).
